From PMC4843824 (Nature chemistry, 2016)

Legend:
Experiment in all cases: differential UV-vis titration
TxtE [1] = molecular target: T1, TxtE (Streptomyces scabiei, UniProt C9ZDC6, H176Y); format: binding
T1 sequence (C9ZDC6 1-406 H176Y): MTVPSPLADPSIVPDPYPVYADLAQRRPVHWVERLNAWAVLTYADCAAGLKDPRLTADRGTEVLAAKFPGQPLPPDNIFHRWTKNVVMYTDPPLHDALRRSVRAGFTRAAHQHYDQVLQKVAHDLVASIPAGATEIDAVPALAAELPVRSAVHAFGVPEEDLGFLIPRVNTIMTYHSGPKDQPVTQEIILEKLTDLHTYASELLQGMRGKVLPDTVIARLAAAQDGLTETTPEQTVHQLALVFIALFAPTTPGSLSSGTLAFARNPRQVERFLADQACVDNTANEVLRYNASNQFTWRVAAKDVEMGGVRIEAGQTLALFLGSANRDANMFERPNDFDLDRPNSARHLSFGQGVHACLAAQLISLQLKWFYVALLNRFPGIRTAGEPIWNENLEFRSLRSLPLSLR

TxtE [2] = molecular target: T2, TxtE (Streptomyces scabiei, UniProt C9ZDC6, H176F); format: binding
T2 sequence (C9ZDC6 1-406 H176F): T1 sequence (C9ZDC6 1-406 H176Y)

Virginiae_TxtE = format: binding, Streptomyces virginiae; settings: read-out: Kd (μM)^b; 25 mM Tris pH 8
TxtE [3] = molecular target: T3, TxtE (Streptomyces scabiei, UniProt C9ZDC6, H176W); format: binding
T3 sequence (C9ZDC6 1-406 H176W): T1 sequence (C9ZDC6 1-406 H176Y)

`N[C@@H](Cc1c[nH]c2ccccc12)C(=O)O` [L-tryptophan] gave a Kd (TxtE [1]) of 4.9 ± 0.3 µM, a Kd (TxtE [2]) of 2600 ± 100 nM and a Kd (Virginiae_TxtE) of 140 ± 6 µM. The Kd (TxtE [3]) was 1300 ± 100 nM.
